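GI50 = concentration required for 50% inhibition of growth. TGI marks complete inhibition of growth.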
Assays:
Assay in all cases: NCI anticancer screen, dose series, 384-well format
786-0 renal = test system: 786-0 renal
A498 renal = test system: A498 renal
A549 NSCLC = test system: A549 NSCLC
ACHN renal = test system: ACHN renal
BT-549 breast = test system: BT-549 breast
CAKI-1 renal = test system: CAKI-1 renal
CCRF-CEM leukemia = test system: CCRF-CEM leukemia
EKVX NSCLC = test system: EKVX NSCLC
HCT-116 colon = test system: HCT-116 colon
HCT-15 colon = test system: HCT-15 colon
HOP-62 NSCLC = test system: HOP-62 NSCLC
HOP-92 NSCLC = test system: HOP-92 NSCLC
HS 578T breast = test system: HS 578T breast
HT29 colon = test system: HT29 colon
IGROV1 ovarian = test system: IGROV1 ovarian
K-562 leukemia = test system: K-562 leukemia
KM12 colon = test system: KM12 colon
LOX IMVI melanoma = test system: LOX IMVI melanoma
M14 melanoma = test system: M14 melanoma
MALME-3M melanoma = test system: MALME-3M melanoma
MCF7 breast = test system: MCF7 breast
MDA-MB-231 breast = test system: MDA-MB-231 breast
MDA-MB-435 melanoma = test system: MDA-MB-435 melanoma
MDA-MB-468 breast = test system: MDA-MB-468 breast
NCI-H226 lung = test system: NCI-H226 lung
NCI-H23 lung = test system: NCI-H23 lung
NCI-H322M lung = test system: NCI-H322M lung
NCI-H522 lung = test system: NCI-H522 lung
NCI/ADR-RES ovarian = test system: NCI/ADR-RES ovarian
OVCAR-3 ovarian = test system: OVCAR-3 ovarian
OVCAR-4 ovarian = test system: OVCAR-4 ovarian
OVCAR-5 ovarian = test system: OVCAR-5 ovarian
OVCAR-8 ovarian = test system: OVCAR-8 ovarian
PC-3 prostate = test system: PC-3 prostate
RPMI-8226 leukemia = test system: RPMI-8226 leukemia
RXF 393 renal = test system: RXF 393 renal
SF-268 CNS = test system: SF-268 CNS
SF-295 CNS = test system: SF-295 CNS
SF-539 CNS = test system: SF-539 CNS
SK-MEL-2 melanoma = test system: SK-MEL-2 melanoma
SK-MEL-28 melanoma = test system: SK-MEL-28 melanoma
SK-OV-3 ovarian = test system: SK-OV-3 ovarian
SN12C renal = test system: SN12C renal
SNB-19 CNS = test system: SNB-19 CNS
SNB-75 CNS = test system: SNB-75 CNS
SW-620 colon = test system: SW-620 colon
T-47D breast = test system: T-47D breast
U251 glioblastoma = test system: U251 glioblastoma
UACC-257 melanoma = test system: UACC-257 melanoma
UACC-62 melanoma = test system: UACC-62 melanoma
UO-31 renal = test system: UO-31 renal

## COc1cccc2c1C(=O)c1c(O)c3c(c(O)c1C2=O)C[C@@](O)(C(C)=O)C[C@@H]3OC1CC(N)C(O)C(C)O1 (stereo partly drawn)
786-0 renal
  GI50: 31 nM
  TGI: 1200 nM
A498 renal
  GI50: 28.2 nM
  TGI: 199 nM
A549 NSCLC
  GI50: 36.9 nM
  TGI: 170 nM
ACHN renal
  GI50: 69.5 nM
  TGI: 265 nM
BT-549 breast
  GI50: 17.9 nM
  TGI: 94.7 nM
CAKI-1 renal
  GI50: 48.6 nM
  TGI: 440 nM
CCRF-CEM leukemia
  TGI: 16.9 nM
EKVX NSCLC
  GI50: 283 nM
  TGI: 1650 nM
HCT-116 colon
  GI50: 14.6 nM
  TGI: 1970 nM
HCT-15 colon
  GI50: 51.7 nM
  TGI: 1010 nM
HOP-62 NSCLC
  GI50: 19.4 nM
  TGI: 73.8 nM
HOP-92 NSCLC
  GI50: 60 nM
  TGI: 3140 nM
HS 578T breast
  GI50: 45.4 nM
  TGI: 234 nM
HT29 colon
  GI50: 29.2 nM
  TGI: 148 nM
IGROV1 ovarian
  GI50: 118 nM
  TGI: 281 nM
K-562 leukemia
  GI50: 14.6 nM
  TGI: 138 nM
KM12 colon
  GI50: 15.9 nM
  TGI: 908 nM
LOX IMVI melanoma
  GI50: 19.3 nM
  TGI: 135 nM
M14 melanoma
  GI50: 21.8 nM
  TGI: 135 nM
MALME-3M melanoma
  GI50: 44.5 nM
  TGI: 176 nM
MCF7 breast
  GI50: 21.5 nM
  TGI: 10500 nM
MDA-MB-231 breast
  GI50: 24.3 nM
  TGI: 133 nM
MDA-MB-435 melanoma
  GI50: 103 nM
  TGI: 260 nM
MDA-MB-468 breast
  GI50: 10.7 nM
  TGI: 24 nM
NCI-H226 lung
  GI50: 33.5 nM
  TGI: 282 nM
NCI-H23 lung
  GI50: 21.9 nM
  TGI: 69.3 nM
NCI-H322M lung
  GI50: 152 nM
  TGI: 433 nM
NCI-H522 lung
  TGI: 90.9 nM
NCI/ADR-RES ovarian
  GI50: 1520 nM
  TGI: 3390 nM
OVCAR-3 ovarian
  GI50: 78.1 nM
  TGI: 566 nM
OVCAR-4 ovarian
  GI50: 165 nM
  TGI: 701 nM
OVCAR-5 ovarian
  GI50: 105 nM
  TGI: 325 nM
OVCAR-8 ovarian
  GI50: 37 nM
  TGI: 197 nM
PC-3 prostate
  GI50: 85.9 nM
  TGI: 282 nM
RPMI-8226 leukemia
  TGI: 20.9 nM
RXF 393 renal
  GI50: 102 nM
  TGI: 237 nM
SF-268 CNS
  GI50: 25.4 nM
  TGI: 181 nM
SF-295 CNS
  GI50: 32.1 nM
  TGI: 114 nM
SF-539 CNS
  GI50: 13.5 nM
  TGI: 115 nM
SK-MEL-2 melanoma
  GI50: 71 nM
  TGI: 142 nM
SK-MEL-28 melanoma
  GI50: 103 nM
  TGI: 229 nM
SK-OV-3 ovarian
  GI50: 36.7 nM
  TGI: 181 nM
SN12C renal
  GI50: 24.2 nM
  TGI: 160 nM
SNB-19 CNS
  GI50: 31.8 nM
  TGI: 13100 nM
SNB-75 CNS
  GI50: 108 nM
  TGI: 269 nM
SW-620 colon
  TGI: 201 nM
T-47D breast
  GI50: 36.8 nM
  TGI: 2140 nM
U251 glioblastoma
  GI50: 10 nM
  TGI: 1080 nM
UACC-257 melanoma
  GI50: 90.2 nM
  TGI: 216 nM
UACC-62 melanoma
  GI50: 11.5 nM
  TGI: 115 nM
UO-31 renal
  GI50: 303 nM
  TGI: 1470 nM

Reference: PubChem BioAssay (NCI)
